pEC50, pIC50: −log10 of the molar value. Where “and” joins values, the source holds several entries; their conditions need not be identical. Equal values may be shown once. Read-outs that look alike come from different tables or passages of the source.
Columns and labels:
[1] = test system: senescent lung fibroblasts; assay: Cleaved caspase-3 (CCasp3) immunocytochemistry in senescent lung fibroblasts; format: cell-based, human; details: for Senolytic window (EC50pro/EC50sen): ratio of proliferating to senescent fibroblast EC50; for concentration above which senolytic effects were displayed: CCasp3 dose-response
[2] = test system: proliferating lung fibroblasts; assay: Cleaved caspase-3 (CCasp3) immunocytochemistry in proliferating lung fibroblasts; format: cell-based, human
[3] = test system: bleomycin-induced lung fibrosis; assay: Bleomycin model in young Col1a2-mTmG mice, FACS-sorted fibroblasts and epithelial cells, qPCR; format: in vivo, mouse
[4] = test system: precision-cut lung slices from bleomycin-injured aged mouse lungs; assay: Precision-cut lung slices (PCLS) from aged mice +/- bleomycin, qPCR; details: 72 hours ex vivo; for Col1a1 expression in PCLS: Nintedanib 1.0μM, vs. vehicle
[5] = test system: senescent lung fibroblasts; assay: Annexin V / Propidium Iodide flow cytometry, senescent fibroblasts; format: cell-based, human; details: 72 hours, F-4N 3.0 μM
[6] = Mouse liver microsomal stability; format: in vitro ADME; details: mouse liver microsomes, 1 μM
[7] = test system: proliferating lung fibroblasts; assay: Annexin V / Propidium Iodide flow cytometry, proliferating fibroblasts; format: cell-based, human; details: 72 hours, F-4N 3.0 μM
[8] = Plasma levels following oral delivery of F-4N; format: in vivo; details: both sexes, mouse, 30 mg/kg
[9] = test system: mice with bleomycin induced lung fibrosis; assay: Oral dose-finding study with F-4N in bleomycin mice (body mass, lung cytokine transcripts); format: in vivo, mouse
[10] = test system: repeated bleomycin-induced lung fibrosis; assay: Repeated bleomycin-induced model of lung fibrosis; format: in vivo, mouse; details: 10mg/kg daily i.p. for two weeks
[11] = Plasma stability assay, mouse plasma; format: in vitro ADME
[12] = test system: bleomycin-induced lung fibrosis in aged mice; assay: Bleomycin-induced model of lung fibrosis in aged mice; format: in vivo, mouse
[13] = Plasma stability assay, human plasma; format: in vitro ADME
[14] = Homo sapiens, Fibroblast, 72 h, read-out: Senescent fibroblast apoptosis EC50
[15] = Homo sapiens, Fibroblast, 72 h, read-out: Proliferating fibroblast apoptosis EC50, cleaved caspase-3 staining, 72 hours, low passage human lung fibroblasts
[16] = read-out: Proliferating fibroblast apoptosis EC50, cleaved caspase-3 staining, 72 hours, low passage human lung fibroblasts
[17] = senescent vs. proliferating fibroblasts, 72 hours
[18] = F-4N 3µM, ABT-263 5.0µM, ABT-199 3µM
[19] = 10 mg/kg i.p. daily days 14-28, vs. vehicle

CC1(C)CCC(c2ccc(Cl)cc2)=C(CN2CCN(c3ccc(C(=O)NS(=O)(=O)c4ccc(N[C@H](CCN5CCOCC5)CSc5ccccc5)c(S(=O)(=O)C(F)(F)F)c4)cc3)CC2)C1 [ABT-263, navitoclax, reference compound]
pEC50 [1, 14]: 5.72
Senolytic window (EC50pro/EC50sen) [1]: 7.8
pEC50 [2, 15]: 4.83

CCOc1ccc(-c2oc3ccccc3c(=O)c2O)cc1 [Compound F-19]
more potent than the natural products Q or F [1]: 10 fold
ranking in follow-up dose-response of the commercial flavonol library ([1]; CCasp3, senescent and proliferating lung fibroblasts): most potent and selective senolytics
pEC50 [1, 14]: 5.62
Senolytic window (EC50pro/EC50sen) [1]: 10.2
pEC50 [2, 15]: 4.60
pEC50 [2, 16]: 4.61
expression of TNF-α in fibroblasts and epithelial cells ([3]; 10 mg/kg i.p. daily for 4 days): did not alter expression
expression of pathological markers of lung fibrosis (ECM genes, senescence-associated soluble factors, aberrant basaloid markers) ([3]; 10 mg/kg i.p. daily for 4 days): normalized expression
expression of Cdkn2a (p16) and Cdkn1a (p21) in fibroblasts and epithelial cells ([3]; 10 mg/kg i.p. daily for 4 days from day 10 after bleomycin, vs. vehicle): significantly reduced expression
expression of alveolar epithelial ATII, ATII/ATI and ATI markers ([3]; 10 mg/kg i.p. daily for 4 days, vs. vehicle): elevated expression
expression of Sftpc and Hopx (mature alveolar epithelium) in PCLS ([4]; F-19 10μM): increased expression
Col1a1 expression in PCLS ([4]; F-19 10μM): reduced expression of Col1a1
expression of senescence-associated markers Cdkn2a, Cdkn1a, Il6 in PCLS ([4]; F-19 10μM, vs. vehicle- and nintedanib-treated): significantly reduced expression

CC1(C)CCC(CN2CCN(c3ccc(C(=O)NS(=O)(=O)c4ccc(NCC5CCOCC5)c([N+](=O)[O-])c4)c(Oc4cnc5[nH]ccc5c4)c3)CC2)=C(c2ccc(Cl)cc2)C1 [ABT-199, venetoclax, reference compound]
pEC50 [1, 14]: 5.49
Senolytic window (EC50pro/EC50sen) [1]: 23.9
pEC50 [2, 15]: 4.12

O=c1c(O)c(-c2ccc(OCc3ccccc3)cc2)oc2ccccc12 [Compound F-20]
pEC50 [1, 14]: 5.82
Senolytic window (EC50pro/EC50sen) [1]: 18.4
pEC50 [2, 15]: 4.56

COC(=O)c1ccc2c(c1)NC(=O)/C2=C(\Nc1ccc(N(C)C(=O)CN2CCN(C)CC2)cc1)c1ccccc1 [nintedanib, reference compound]
Col1a1 expression in PCLS ([4]; F-19 10μM): reduced expression of Col1a1

O=c1c(O)c(-c2ccc(OCc3ccccn3)cc2)oc2ccccc12 [Compound F-2N]
pEC50 [1, 14]: 4.66
Senolytic window (EC50pro/EC50sen) [1]: 1.4
pEC50 [2, 15]: 4.53

CN(C)CC[C@H](CSc1ccccc1)Nc1ccc(S(=O)(=O)NC(=O)c2ccc(N3CCN(Cc4ccccc4-c4ccc(Cl)cc4)CC3)cc2)cc1[N+](=O)[O-] [ABT-737, reference compound]
pEC50 [1, 14]: 6.15
pEC50 [2, 15]: 5.01

O=c1c(O)c(-c2ccc(OCc3cccnc3)cc2)oc2ccccc12 [Compound F-3N]
pEC50 [1, 14]: 4.95
Senolytic window (EC50pro/EC50sen) [1]: 1.3
pEC50 [2, 15]: 4.83

O=c1c(O)c(-c2ccc(O)c(O)c2)oc2cc(O)ccc12 [fisetin, reference compound]
concentration above which senolytic effects were displayed [1, 17]: above 30 μM

O=c1c(O)c(-c2ccc(OCc3ccncc3)cc2)oc2ccccc12 [Compound F-4N]
greater senolytic potency in vitro compared to fisetin or quercetin [1]: ~ 50 X
pEC50 [1, 14]: 6.10
pEC50 ([1]; Homo sapiens, Fibroblast, read-out: EC50 (senolytic potency, CCasp3 assay)): 6.05
pIC50 ([1]; Homo sapiens, Fibroblast, read-out: defined in vitro IC50): 6.05
Senolytic window (EC50pro/EC50sen) [1]: 61.1
cleaved caspase-3 expression in senescent fibroblasts derived from multiple stimuli ([1]; senescence by replication, radiation, etoposide or bleomycin, 72 hours, F-4N 3µM): induces cleaved caspase-3 expression
senolytic window (selective) ([1]; senescent vs. proliferating fibroblasts): 61.1 fold
apoptosis (Annexin V / Propidium Iodide) [5]: selective apoptosis in senescent lung fibroblasts
pEC50 [2, 15]: 4.31
microsomal half-life relative to quercetin [6]: > 3 fold
apoptosis (Annexin V / Propidium Iodide) [7]: without an observable impact
concentration at 2 h [8]: 561 ng/mL and 1.62 µM
markers indicative of alveolar regeneration in PCLS [4, 18]: stimulated expression of markers indicative of alveolar regeneration
senescence associated markers in PCLS [4, 18]: supported reductions in senescence associated markers
bodyweight ([9]; 30mg/kg daily p.o. for one week): improvement in bodyweight
minimum effective oral dose to impact expression of Infa2, Il6, Ccl19, Cxcl13, Tgfb2, Ltb ([9]; daily p.o. 7 days, whole lung qPCR): 30 mg/kg
expression of aberrant basaloid/intermediate epithelial markers Snf, Cldn4, Krt19, Mmp7 [10]: repressing expression
expression of mature alveolar epithelial markers Hopx, Ager, Sftpa1, Sftpc [10]: enhanced expression
body mass, lung architecture, collagen content, whole lung gene expression ([10]; vs. vehicle): features consistent with resolution
half-life at 1 μM [11]: > 120 min
plasma levels of IL-6 ([12]; 10 mg/kg i.p. daily days 14-28): nearly complete normalization
lung collagen content (hydroxyproline) [12, 19]: nearly complete resolution of lung collagen content
mouse survival [12, 19]: improvement in mouse survival
whole lung expression of ECM and senescence-associated transcripts [12, 19]: significantly lower expression
whole lung markers associated with alveolar regeneration and repair [12, 19]: significantly elevated
half-life at 1 μM [13]: > 120 min

O=c1c(O)c(-c2ccc(O)c(O)c2)oc2cc(O)cc(O)c12 [quercetin, reference compound]
concentration above which senolytic effects were displayed [1, 17]: above 30 μM
pEC50 [1, 14]: < 4.52
half-life at 1 μM [11]: ~30 min
half-life at 1 μM [13]: ~30 min

CCCOc1ccc(-c2oc3ccccc3c(=O)c2O)cc1 [F-19(Me)]
Senolytic window (EC50pro/EC50sen) [1]: 5.7
pEC50 ([1]; read-out: Senescent fibroblast apoptosis EC50, cleaved caspase-3 staining, 72 hours, replicative senescent human lung fibroblasts): 5.47
pEC50 [2, 16]: 4.71

From paper PMC12441843 (ACS pharmacology & translational science, 2025)
